Results on two compounds are retold here after US4797506A, “6-substituted prostaglandins E1 and process for producing same” (Teijin Limited, priority 1984, dated 1989).

Test [1] relates to ulcer formation induced by indomethacin. The test can be described thus: Inhibition of indomethacin-induced ulcer formation in rats (antiulcerative effect). The format is in vivo, Wister male rats. The note with it: Rattus norvegicus, P.O., 30 minutes before oral indomethacin 20 mg/kg, ulcer length 5 hours after indomethacin. The protocol:
(i) Determination of Antiulcerative Effect
The inhibiting effect on ulcer formation induced by indomethacin was examined by using rats. Wister male rats (7 weeks old, body weight 220 g) were abstained from food for 24 hours except giving water and then subjected to experiments.
The sample compounds to be tested were dissolved in a phosphoric acid buffer (pH 7.4) containing 0.9% NaCl and the solution was orally administered to the rats. 30 minutes after the administration, indomethacin was orally administered to the rats at a dose of 20 mg/kg. 5 hours after the administration of the indomethacin, the rats were killed and the ulcer formation in the stomach was examined by determining the length of the ulcer formation portion under a stereomicroscope. From this measurement, the inhibition of ulcer formation by the sample compounds was calculated to determine the ED50 values.

Test [2] deals with platelet aggregation. The test can be described thus: In vitro platelet aggregation inhibition (ADP-induced, PRP). The format is cell-based, Japanese white male domestic rabbits. The settings on record: Oryctolagus cuniculus, rabbit PRP, 10 μM ADP, 37° C., sample in ethanol diluted with phosphoric acid buffer pH 7.4, left at 0° C. for 4 hours, lowest concentration at which the inhibition is 50%, read-out: Anti-platelet aggregation effect IC50. The protocol:
(ii) In vitro PlateletAAggregation Inhibition Effect
The in vitro platelet aggregation inhibition effect of the sample compounds to be tested was examined by using rabbits. That is, blood was collected from the ear vein of native Japanese white male domestic rabbits weighing 2.5 to 3.5 kg. The collected blood was 9 parts by volume per 1 part by volume of a 3.8% sodium citrate solution. The blood was centrifuged at 100 r.p.m. for 10 minutes. The upper layer portion was separated as PRP (rich in platelet blood plasma). The lower layer portion was further centrifuged at 2800 r.p.m. for 10 minutes to divide it into two layers. The upper layer portion was separated as PPP (poor in platelet blood plasma). The member of the platelet was diluted with PPP to 6 to 7×10^' /μl. After the adjustment, 25 μl of the sample compound was added to 250 μl of PRP, which was preincubated at a temperature of 37° C. for 2 minutes. […]
When the activity of the sample compounds was determined, the ethanol solution was diluted with a phosphoric acid buffer (pH 7.4). The ethanol solution diluted with the buffer was left to stand at a temperature of 0° C. for 4 hours, after which the activity of the sample compounds was determined in the same manner.
The agglutination inhibition was calculated by the following formula: [formula] […]

The test system of test [3] is platelet aggregation. The note with it: compared with prostacyclin; cited from earlier work.

What is called ED50 is the dose at which the effect has come halfway, by size or by number of responders. A low value points to an effect at a small dose. The IC50 is the concentration needed to halve the response being measured. In test [1], `CCCCC(C)(O)C/C=C/[C@H]1[C@H](O)CC(=O)[C@@H]1CC(CCCCC(=O)OC)[N+](=O)[O-]` (stereo partly drawn) gave a median effective dose (ED50) of 0.022 mg/kg. The IC50 in the test on platelet aggregation [2] is greater than 100 µg/mL. On to `CCCCC[C@H](O)/C=C/[C@H]1[C@H](O)CC(=O)[C@@H]1CC(=O)CCCCC(=O)O` [6-oxoprostaglandin E1], for which the “platelet aggregation inhibition effect” value in the test with platelet aggregation [3] is listed as “as strong as those of prostacyclin”.
